Key:
Type in all cases: in vivo, rat
[1] = tested on: malondialdehyde (MDA); test: Serum MDA content in rats with myocardial ischemia; conditions: for MDA: serum, 24 h after ligation
Experimental: (§1) At 0.5 h after the rats of these groups were administered intragastrically, the standard II lead electrocardiogram (before modeling) was recorded, and the height of ST-T segment was measured. The rats of sham operation group were then subjected to coronary artery braid without ligation, and the rats of other groups were subjected to coronary artery ligation in accordance with the following method to establish cute myocardial ischemia models. The rats were subjected to etherization, fixed at supine position, and their normal electrocardiograms (before modeling) were recorded. The skin of left thorax was incised under aseptic conditions, the 4th intercostal muscles were isolated in blunt way, the heart was extruded by light pressure to the right thorax, the left anterior descending coronary artery was ligated at a position 2˜3 mm departing from the left coronary artery origin and between the pulmonary conus and the left auricle of heart, then the heart was sent back to thorax cavity immediately and sutured the incision. Penicillin was smeared topically for the prevention of infections. After operation, the electrocardiogram of postischemia was recorded immediately (at 0 min after modeling), and the height of ST-T segment was measured.

[2] = tested on: rats with cardiac ischemia reperfusion (I/R) injury; test: Myocardial infarction areas caused by cardiac muscle I/R; conditions: for aar/lv / nec/aar / nec/lv: 5 days, ischemia 30 min, reperfusion 30 min
Experimental: (§2) 52 SD rats having a body weight of 220±20 g were randomly divided into model control group, salviannic acid injection group (in 1 mL/kg), and group of bornyl β-(3,4-dihydroxylphenyl)-α-hydroxylpropionate ester at a small, middle and large dose (ip 5, 15, 35 mg/kg). The rats of the normal group and the model control group were ip administered with equal-volume of physiologic saline. The rats of all groups were administered for consecutive 5 days. When the rats were administered for the last time, they were simultaneously anesthetized with 1.5% pentobarbital sodium (ip 45 mg/kg), then a catheter was inserted into the right carotid artery, and connected via a transducer to an eight-channeled physiological recorder. Tracheal cannula was performed, and the ventilation rate was maintained at 60 times/min. The chest was opened, a 6/0 suture was used to form a loop at a site 1˜2 mm from the root of the anterior descending coronary artery, and a plastic pipe was introduced through the loop, then the loop was tightened up. The change of electrocardiogram was observed. An increase or decrease of ST indicated the success of ligation. The color of the myocardial tissue below the ligation suture became darker. 30 minutes later, the plastic pipe was pulled out to allow coronary artery blood flowing again and cause hyperemia of local tissue during reperfusion. For the groups subjected to ischemia for 30 min and reperfusion for 30 min, the myocardial infarction areas were recorded before the test, after ischemia for 1 min and 30 min, and after reperfusion for 30 min; for the groups subjected to ischemia for 30 min and reperfusion for 2 h, cardiac tissue samples were taken and fixed using 10% formalin, embedded with paraffin, serially sliced into sections with a thickness of 4 μm, and separately subjected to immunohistochemistry tests; the rats of the sham operation group were subjected only to the introduction of suture but their coronary arteries were not ligated.
After the rats were subjected to ischemia and reperfusion for 30 minutes, their anterior descending coronaries were ligated again, then they were sacrificed, their hearts were removed promptly, and 0.5 mL of 1% evans blue was injected into heart chambers via aorta to distinguish the ischemic regions and the non-ischemic regions. After the heart atrium and right ventricle were cut-off, the heart was refrigerated at −20° C. for 30 min, then placed in a tailor-made slice groove, and cut along the long axis to form 2 mm slices. The slices were immersed in 1% TTC phosphoric acid buffer solution (pH7.4), and incubated at 37° C. for 30 min to distinguish risky regions and necrotic regions. Then the slices were fixed with 10% formaldehyde for 24 h to enhance staining color for contrast photography. After the above treatment, the myocardial tissue was divided into: normal myocardia in blue, ischemic myocardia in light red, and necrotic myocardion in gray. A computer image analysis software was used to calculate the percentage of the area of the infarct myocardial region (nec) based on the area of the risky myocardial region (aar, i.e., ischemic myocardia, including ischemic infarct region and ischemic non-infarct region) (nec/aar), and the percentage of the area of the infarct myocardial region based on the whole area of the myocardia (nec/lv) to indicate the degree of infarct, as well as the percentage of the area of the risky myocardia based on the area of the left ventricle (aar/lv).

[3] = tested on: caspase-3; test: Immunohistochemistry protein expression in I/R myocardial tissue: caspase-3; conditions: for Caspase-3 protein expression, OD value: 5 days, ischemia 30 min, reperfusion 2 h
Experimental: as §2
(§3) Standard immunohistochemistry ABC and SP methods were employed for staining. Bax: anti-rabbit polyclonal antibody (Santa CruzBio. Inc.) at a dilution of 1:200; […]: anti-rabbit polyclonal antibody (TBD Tianjin Biotechnological Center). At a dilution of […]; caspase-3: anti-rabbit polyclonal antibody (Normarkers Fromont, Calif.), at a dilution of 1:200; MMP-2: anti-murine monoclonal antibody (NormarkersFromont, Calif.) at a dilution of 1:200; PPARγ: anti-caprine polyclonal antibody (Santa Cruz Bio. Inc.), at a dilution of 1:500. The specific procedures were performed in accordance with the instructions of the ABC and SP kits, DAB was used for color development, and neutral resin was used for mounting. PBS was used instead of the first antibody as a negative control. Cells with positive expression of the test polypeptides were of brown-yellow color, with MMP-2 protein being present in acytoplasm, Bcl-2 expressed in nuclear membrane and cytoplasm, Bax mainly in cytoplasm and partially in nucleus, and caspase-3 mainly in nucleus and partially in cytoplasm. CMIAS image analysis system was used for random selection of fields of slices and automatic selection of sites for analysis, and statistic analysis was performed by using mean optical density values or integral optical density values of the obtained myocardial tissue slices.

[4] = tested on: PPARγ; test: Immunohistochemistry protein expression in I/R myocardial tissue: PPARγ; conditions: 5 days, ischemia 30 min, reperfusion 2 h
Experimental: as §2
Standard immunohistochemistry ABC and SP methods were employed for staining. Bax: anti-rabbit polyclonal antibody (Santa CruzBio. Inc.) at a dilution of 1:200; […]: anti-rabbit polyclonal antibody (TBD Tianjin Biotechnological Center). At a dilution of […]; caspase-3: anti-rabbit polyclonal antibody (Normarkers Fromont, Calif.), at a dilution of 1:200; MMP-2: anti-murine monoclonal antibody (NormarkersFromont, Calif.) at a dilution of 1:200; PPARγ: anti-caprine polyclonal antibody (Santa Cruz Bio. Inc.), at a dilution of 1:500. The specific procedures were performed in accordance with the instructions of the ABC and SP kits, DAB was used for color development, and neutral resin was used for mounting. PBS was used instead of the first antibody as a negative control. […]

[5] = tested on: Bax; test: Immunohistochemistry protein expression in I/R myocardial tissue: Bax; conditions: for Bax protein expression, OD value: 5 days, ischemia 30 min, reperfusion 2 h
Experimental: as §2, §3

[6] = tested on: superoxide dismutase (SOD); test: Serum SOD activity in rats with myocardial ischemia; conditions: for SOD: serum, 24 h after ligation
Experimental: as §1

CC1(C)C2CCC1(C)C(OC(=O)C(O)Cc1ccc(O)c(O)c1)C2 (stereo not drawn) [bornyl salvianate ester, bornyl β-(3,4-dihydroxylphenyl)-α-hydroxylpropionate ester]
MDA ([1]; 10 mg/kg intragastric): 21.69 ± 27.94 nmol/mL | MDA ([1]; 20 mg/kg intragastric): 10.60 ± 11.156 nmol/mL | MDA ([1]; 40 mg/kg intragastric): 9.43 ± 6.57 nmol/mL | serum MDA content (in words) ([1]; middle and large dose groups, no significant difference from model control): decrease tendency | aar/lv ([2]; 5 mg/kg ip): 64.09 ± 18.10% | nec/aar ([2]; 5 mg/kg ip): 61.72 ± 14.65% | nec/lv ([2]; 5 mg/kg ip): 48.45 ± 17.11% | aar/lv ([2]; 15 mg/kg ip): 63.02 ± 15.98% | nec/aar ([2]; 15 mg/kg ip): 62.63 ± 13.82% | nec/lv ([2]; 15 mg/kg ip): 48.23 ± 15.34% | aar/lv ([2]; 35 mg/kg ip): 51.97 ± 13.04 % | nec/aar ([2]; 35 mg/kg ip): 50.01 ± 9.03 % | nec/lv ([2]; 35 mg/kg ip): 40.21 ± 12.65 % | decrease of aar/lv in comparison with the model control group ([2]; large dose group (35 mg/kg ip)): 22.5% | decrease of nec/aar in comparison with the model control group ([2]; large dose group (35 mg/kg ip)): 22% | decrease of nec/lv in comparison with the model control group ([2]; large dose group (35 mg/kg ip)): 20.4% | Caspase-3 protein expression, OD value ([3]; 5 mg/kg ip): 0.35 ± 0.14 | Caspase-3 protein expression, OD value ([3]; 15 mg/kg ip): 0.32 ± 0.08 | Caspase-3 protein expression, OD value ([3]; 35 mg/kg ip): 0.20 ± 0.07 | expression of caspase-3 protein (in words) ([3]; myocardial cells I/R): reduce the expression of Bax and caspase-3 proteins | PPARγ protein expression, OD value ([4]; 5 mg/kg ip): 0.16 ± 0.05 | PPARγ protein expression, OD value ([4]; 15 mg/kg ip): 0.18 ± 0.06 | PPARγ protein expression, OD value ([4]; 35 mg/kg ip): 0.18 ± 0.10 | Bax protein expression, OD value ([5]; 5 mg/kg ip): 0.12 ± 0.03 | Bax protein expression, OD value ([5]; 15 mg/kg ip): 0.09 ± 0.05 | Bax protein expression, OD value ([5]; 35 mg/kg ip): 0.07 ± 0.03 | expression of Bax protein (in words) ([5]; myocardial cells I/R): reduce the expression of Bax and caspase-3 proteins | SOD ([6]; 10 mg/kg intragastric): 117.66 ± 31.97 U/mL | SOD ([6]; 20 mg/kg intragastric): 111.32 ± 20.36 U/mL | SOD ([6]; 40 mg/kg intragastric): 119.63 ± 23.53 U/mL | superoxide dismutase (SOD) (in words) ([6]; especially in the large dose group): increased
